# Molecular target: T1, human orexin type 2 receptor (hOX2R) (Homo sapiens, UniProt O43614)
# T1 construct: expressed in transfected cells
# T1 sequence (O43614 1-444): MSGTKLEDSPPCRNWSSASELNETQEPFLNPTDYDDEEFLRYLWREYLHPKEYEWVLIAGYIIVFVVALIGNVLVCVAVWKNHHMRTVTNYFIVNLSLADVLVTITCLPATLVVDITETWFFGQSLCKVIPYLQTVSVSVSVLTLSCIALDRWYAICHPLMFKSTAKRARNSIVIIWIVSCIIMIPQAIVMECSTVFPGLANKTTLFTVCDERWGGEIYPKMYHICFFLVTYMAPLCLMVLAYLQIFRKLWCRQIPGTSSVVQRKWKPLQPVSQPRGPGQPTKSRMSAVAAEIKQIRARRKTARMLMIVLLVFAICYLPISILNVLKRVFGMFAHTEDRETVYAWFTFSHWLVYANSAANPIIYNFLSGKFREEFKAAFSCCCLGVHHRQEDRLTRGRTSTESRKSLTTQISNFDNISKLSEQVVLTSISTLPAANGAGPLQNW
# Assay: Measurement of orexin type 2 receptor agonist activity (FLIPR calcium fluorescence)
# Assay type: cell-based
# Conditions: CHO cells expressing hOX2R, FLIPR calcium fluorescence; for EC50: read-out: hOx2 pEC50 (converted); for Emax: CHO, read-out: hOx2 Emax (%)
# Method in brief: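 Agonism was read as fluorescence in cells stably expressing human OX2R. E. is the response at 10 μM relative to orexin A as full agonist (100%).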
SMILES,EC50 [nM],Emax [%]
"COC[C@H]1CCN1C(=O)N1CC2(CC2)[C@H](NS(C)(=O)=O)[C@@H]1Cc1cccc(-c2ccccc2)c1F [Compound 103, N-((6S,7S)-6-((2-fluoro-[1,1′-biphenyl]-3-yl)methyl)-5-((R)-2-(methoxymethyl)azetidine-1-carbonyl)-5-azaspiro[2.4]heptan-7-yl)methanesulfonamide]",10 to 100,90 to 100
"C[C@@H](F)C(=O)N1CC2(CC2)[C@H](NS(=O)(=O)CF)[C@@H]1Cc1cccc(-c2cc(F)cc(F)c2)c1F [Compound 233, 1-fluoro-N-((6S,7S)-5-((R)-2-fluoropropanoyl)-6-((2,3′,5′-trifluoro-[1,1′-biphenyl]-3-yl)methyl)-5-azaspiro[2.4]heptan-7-yl)methanesulfonamide]",10 to 100,80 to 90
"N#CC1(CNC(=O)N2CC3(CC3)[C@H](NS(=O)(=O)CF)[C@@H]2Cc2cccc(-c3ccccc3)c2F)CC1 [Compound 186, (6S,7S)-N-((1-cyanocyclopropyl)methyl)-6-((2-fluoro-[1,1′-biphenyl]-3-yl)methyl)-7-((fluoromethyl)sulfonamido)-5-azaspiro[2.4]heptane-5-carboxamide]",0.0794 to 1,90 to 100
"CC(C)S(=O)(=O)N[C@@H]1[C@H](Cc2cccc(-c3cc(F)cc(F)c3)c2F)N(C(=O)[C@H]2CCO2)CC12CC2 [Compound 222, N-((6S,7S)-5-((R)-oxetane-2-carbonyl)-6-((2,3′,5′-trifluoro-[1,1′-biphenyl]-3-yl)methyl)-5-azaspiro[2.4]heptan-7-yl)propane-2-sulfonamide]",0.0794 to 1,90 to 100
"O=C(NCC(F)F)N1CC2(CC2)[C@H](NS(=O)(=O)C(F)F)[C@@H]1Cc1cccc(-c2ccccc2)c1F [Compound 165, (6S,7S)-N-(2,2-difluoroethyl)-7-((difluoromethyl)sulfonamido)-6-((2-fluoro-[1,1′-biphenyl]-3-yl)methyl)-5-azaspiro[2.4]heptane-5-carboxamide]",1 to 10,90 to 100
"O=C(N1CC(F)C1)N1CC2(CC2)C(NS(=O)(=O)CF)C1Cc1cccc(-c2ccccc2)c1F (racemic) [Compound 105, 1-fluoro-N-(6-((2-fluoro-[1,1′-biphenyl]-3-yl)methyl)-5-(3-fluoroazetidine-1-carbonyl)-5-azaspiro[2.4]heptan-7-yl)methanesulfonamide]",1 to 10,90 to 100
"O=C([C@@H](O)C1CC1)N1CC2(CC2)[C@H](NS(=O)(=O)C(F)F)[C@@H]1Cc1cc(F)cc(-c2cc(F)cc(F)c2)c1F [Compound 384, N-((6S,7S)-5-((S)-2-cyclopropyl-2-hydroxyacetyl)-6-((2,3′,5,5′-tetrafluoro-[1,1′-biphenyl]-3-yl)methyl)-5-azaspiro[2.4]heptan-7-yl)-1,1-difluoromethanesulfonamide]",1 to 10,90 to 100
"CS(=O)(=O)N[C@@H]1[C@H](Cc2cccc(-c3ccccc3)c2F)N(C(=O)[C@H](O)C(F)F)CC12CC2 [Compound 351, N-((6S,7S)-5-((S)-3,3-difluoro-2-hydroxypropanoyl)-6-((2-fluoro-[1,1′-biphenyl]-3-yl)methyl)-5-azaspiro[2.4]heptan-7-yl)methanesulfonamide]",10 to 100,90 to 100
N#CC1(C(=O)N2CC3(CC3)[C@H](NS(=O)(=O)C(F)F)[C@@H]2Cc2cccc(-c3ccccc3)c2F)CCC1 [Compound 403],1 to 10,90 to 100
"COC1(C(=O)N2CC3(CC3)[C@H](NS(=O)(=O)CF)[C@@H]2Cc2cc(F)cc(-c3ccccc3)c2F)CC1 [Compound 404, N-((6S,7S)-6-((2,5-difluoro-[1,1′-biphenyl]-3-yl)methyl)-5-(1-methoxycyclopropane-1-carbonyl)-5-azaspiro[2.4]heptan-7-yl)-1-fluoromethanesulfonamide]",1 to 10,90 to 100
"[2H]c1c([2H])c([2H])c(-c2cc(F)cc(C[C@H]3[C@@H](NS(C)(=O)=O)C4(CC4)CN3C(=O)[C@H]3CCO3)c2F)c([2H])c1[2H] [Compound 348, N-((6S,7S)-6-((2,5-difluoro-[1,1′-biphenyl]-3-yl-2′,3′,4′,5′,6′-d5)methyl)-5-((R)-oxetane-2-carbonyl)-5-azaspiro[2.4]heptan-7-yl)methanesulfonamide]",1 to 10,90 to 100
"O=C([C@H]1CCO1)N1CC2(CC2)[C@H](NS(=O)(=O)CF)[C@@H]1Cc1cc(F)cc(-c2cccc(F)c2)c1F [Compound 123, 1-fluoro-N-((6S,7S)-5-((R)-oxetane-2-carbonyl)-6-((2,3′,5-trifluoro-[1,1′-biphenyl]-3-yl)methyl)-5-azaspiro[2.4]heptan-7-yl)methanesulfonamide]",0.0794 to 1,90 to 100
"O=C([C@@H](O)C(F)F)N1CC2(CC2)[C@H](NS(=O)(=O)C(F)F)[C@@H]1Cc1cccc(-c2ccccc2)c1F [Compound 198, N-((6S,7S)-5-((R)-3,3-difluoro-2-hydroxypropanoyl)-6-((2-fluoro-[1,1′-biphenyl]-3-yl)methyl)-5-azaspiro[2.4]heptan-7-yl)-1,1-difluoromethanesulfonamide]",1 to 10,90 to 100
"COC1(C(=O)N2CC3(CC3)[C@H](NS(=O)(=O)CF)[C@@H]2Cc2cccc(-c3ccccc3)c2F)CC1 [Compound 180, 1-fluoro-N-((6S,7S)-6-((2-fluoro-[1,1′-biphenyl]-3-yl)methyl)-5-(1-methoxycyclopropane-1-carbonyl)-5-azaspiro[2.4]heptan-7-yl)methanesulfonamide]",1 to 10,90 to 100

# Other lines, results leading:
EC50 [nM],Emax [%],SMILES
1 to 10,90 to 100,"CCCNC(=O)N1CC2(CC2)[C@H](NS(C)(=O)=O)[C@@H]1Cc1cccc(-c2ccccc2)c1F [Compound 111, (6S,7S)-6-((2-fluoro-[1,1′-biphenyl]-3-yl)methyl)-7-(methylsulfonamido)-N-propyl-5- .azaspiro[2.4]heptane-5-carboxamide]"
10 to 100,90 to 100,"CS(=O)(=O)N[C@@H]1[C@H](Cc2cccc(-c3ccccc3)c2)N(C(=O)[C@H](O)CF)CC12CC2 [Compound 62, N-((6S,7S)-6-([1,1′-biphenyl]-3-ylmethyl)-5-((S)-3-fluoro-2-hydroxypropanoyl)-5-azaspiro[2.4]heptan-7-yl)methanesulfonamide]"
1 to 10,90 to 100,"CC(C)(F)S(=O)(=O)N[C@@H]1[C@H](Cc2cccc(-c3ccccc3)c2F)N(C(=O)[C@H]2CCO2)CC12CC2 [Compound 398, 2-fluoro-N-((6S,7S)-6-((2-fluoro-[1,1′-biphenyl]-3-yl)methyl)-5-((R)-oxetane-2-carbonyl)-5-azaspiro[2.4]heptan-7-yl)propane-2-sulfonamide]"
10 to 100,90 to 100,"C[C@@H](C#N)C(=O)N1CC2(CC2)[C@H](NS(C)(=O)=O)[C@@H]1Cc1cccc(-c2ccccc2)c1 [Compound 309, N-((6S,7S)-6-([1,1′-biphenyl]-3-ylmethyl)-5-((S)-2-cyanopropanoyl)-5-azaspiro[2.4]heptan-7-yl)methanesulfonamide]"
0.0794 to 1,90 to 100,"O=C([C@H]1CCO1)N1CC2(CC2)[C@H](NS(=O)(=O)CF)[C@@H]1Cc1cccc(-c2ccccc2)c1F [Compound 93, 1-fluoro-N-((6S,7S)-6-((2-fluoro-[1,1′-biphenyl]-3-yl)methyl)-5-((R)-oxetane-2-carbonyl)-5-azaspiro[2.4]heptan-7-yl)methanesulfonamide]"
1 to 10,90 to 100,CNS(=O)(=O)N[C@@H]1[C@H](Cc2cccc(-c3ccccc3)c2)N(C(=O)[C@H]2CCO2)CC12CC2 [Compound 71]
0.0794 to 1,90 to 100,"CN(C)S(=O)(=O)N[C@@H]1[C@H](Cc2cccc(-c3ccccc3)c2F)N(C(=O)[C@H]2CCO2)CC12CC2 [Compound 64, N-((6S,7S)-6-((2-fluoro-[1,1′-biphenyl]-3-yl)methyl)-5-((R)-oxetane-2-carbonyl)-5-azaspiro[2.4]heptan-7-yl)-N,N-dimethylsulfuric diamide]"
0.0794 to 1,90 to 100,"COC1(CNC(=O)N2CC3(CC3)[C@H](NS(=O)(=O)CF)[C@@H]2Cc2cccc(-c3ccccc3)c2F)CC1 [Compound 370, (6S,7S)-6-((2-fluoro-[1,1′-biphenyl]-3-yl)methyl)-7-((fluoromethyl)sulfonamido)-N-((1-methoxycyclopropyl)methyl)-5-azaspiro[2.4]heptane-5-carboxamide]"
1 to 10,90 to 100,"CS(=O)(=O)N[C@@H]1[C@H](Cc2cccc(-c3ccccc3)c2)N(C(=O)[C@H](O)C(F)F)CC12CC2 [Compound 70, N-((6S,7S)-6-([1,1′-biphenyl]-3-ylmethyl)-5-((S)-3,3-difluoro-2-hydroxypropanoyl)-5-azaspiro[2.4]heptan-7-yl)methanesulfonamide]"
10 to 100,90 to 100,"CN(C(=O)N1CC2(CC2)[C@H](NS(C)(=O)=O)[C@@H]1Cc1cccc(-c2ccccc2)c1F)[C@H]1CCOC1 [Compound 321, (6S,7S)-6-((2-fluoro-[1,1′-biphenyl]-3-yl)methyl)-N-methyl-7-(methylsulfonamido)-N-((S)-tetrahydrofuran-3-yl)-5-azaspiro[2.4]heptane-5-carboxamide]"

# Source: patent US12503475B2 (Centessa Pharmaceuticals (UK) Limited, priority 2020, dated 2025)
